Measurements: PubChem BioAssay AID248 (DTP/NCI, 2004)
Several values for one entry are separate records, joined by “and”; a condition that tells them apart may be missing. Equal values may be shown once. Toxic doses and inconclusive results are not listed. No stated cut-off is given here; in the data, active means T/C of 150% or more; inactive means T/C below 125%.

Tested on: L1210 leukemia ip in BDF1 mice, survival T/C
Experiment: NCI In Vivo Anticancer Drug Screen. Data for tumor model L1210 Leukemia (intraperitoneal) in B6D2F1 (BDF1) mice
Settings: endpoint: mean survival time, higher = longer survival
How it was run: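 Ratio derived from survival: compound-dosed mice over vehicle-dosed mice, all bearing a transplantable tumor.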

[1] = dose: 10.0 mg/kg/injection, schedule: Q01DX001 (ip), vehicle: saline
[2] = dose: 100.0 mg/kg/injection, schedule: Q04DX003 (ip), vehicle: Klucel (hydroxypropylcellulose) (HPC)
[3] = dose: 200.0 mg/kg/injection, schedule: Q04DX003 (ip), vehicle: Klucel (hydroxypropylcellulose) (HPC)
[4] = dose: 400.0 mg/kg/injection, schedule: Q04DX003 (ip), vehicle: Klucel (hydroxypropylcellulose) (HPC)
[5] = dose: 100.0 mg/kg/injection, schedule: Q01DX001 (ip), vehicle: saline
[6] = dose: 100.0 mg/kg/injection, schedule: Q04DX002 (ip), vehicle: Klucel (hydroxypropylcellulose) (HPC)
[7] = dose: 200.0 mg/kg/injection, schedule: Q01DX001 (ip), vehicle: saline
[8] = dose: 400.0 mg/kg/injection, schedule: Q01DX001 (ip), vehicle: saline
[9] = dose: 100.0 mg/kg/injection, schedule: Q01DX009 (ip), vehicle: Klucel (hydroxypropylcellulose) (HPC)
[10] = dose: 200.0 mg/kg/injection, schedule: Q01DX009 (ip), vehicle: Klucel (hydroxypropylcellulose) (HPC)
[11] = dose: 400.0 mg/kg/injection, schedule: Q01DX009 (ip), vehicle: Klucel (hydroxypropylcellulose) (HPC)

Measured: T/C

c1ccc([As+](c2ccccc2)(c2ccccc2)c2ccccc2)cc1
inactive: dose: 1.1 mg/kg/injection, schedule: Q01DX Z (ip), vehicle: carboxymethylcellulose (CMC) 120 % of control | dose: 1.2 mg/kg/injection, schedule: Q04DX003 (ip), vehicle: carboxymethylcellulose (CMC) 119 % of control | dose: 1.7 mg/kg/injection, schedule: Q01DX Z (ip), vehicle: carboxymethylcellulose (CMC) 104 % of control and 119 % of control | dose: 2.5 mg/kg/injection, schedule: Q01DX Z (ip), vehicle: carboxymethylcellulose (CMC) 101 % of control | dose: 2.5 mg/kg/injection, schedule: Q01DX Z (ip), vehicle: methylcellulose (MC) 119 % of control | dose: 2.5 mg/kg/injection, schedule: Q04DX003 (ip), vehicle: carboxymethylcellulose (CMC) 117 % of control | dose: 3.76 mg/kg/injection, schedule: Q01DX Z (ip), vehicle: carboxymethylcellulose (CMC) 107 % of control | dose: 5.0 mg/kg/injection, schedule: Q01DX001 (ip), vehicle: carboxymethylcellulose (CMC) 115 % of control | dose: 5.0 mg/kg/injection, schedule: Q01DX001 (ip), vehicle: saline 106 % of control | dose: 5.0 mg/kg/injection, schedule: Q04DX003 (ip), vehicle: carboxymethylcellulose (CMC) 116 % of control | dose: 5.56 mg/kg/injection, schedule: Q01DX Z (ip), vehicle: carboxymethylcellulose (CMC) 102 % of control | [1] 106 % of control

O=S(=O)(Nc1cccc2ccccc12)c1cccc2cccnc12
inactive: [2] 90 % of control | [3] 91 % of control | [4] 91 % of control

CCOC(=O)C1c2cc3c(cc2C(c2cc(OC)c(OC)c(OC)c2)C2C(=O)OCC12)OCO3 (configuration not stated)
inactive: dose: 2.5 mg/kg/injection, schedule: Q01DX009 (ip), vehicle: Klucel (hydroxypropylcellulose) (HPC) 112 % of control | dose: 3.0 mg/kg/injection, schedule: Q01DX009 (ip), vehicle: Klucel (hydroxypropylcellulose) (HPC) 124 % of control | dose: 4.0 mg/kg/injection, schedule: Q01DX009 (ip), vehicle: Klucel (hydroxypropylcellulose) (HPC) 105 % of control | dose: 6.0 mg/kg/injection, schedule: Q01DX009 (ip), vehicle: Klucel (hydroxypropylcellulose) (HPC) 113 % of control | dose: 9.0 mg/kg/injection, schedule: Q01DX009 (ip), vehicle: Klucel (hydroxypropylcellulose) (HPC) 115 % of control | dose: 12.5 mg/kg/injection, schedule: Q01DX009 (ip), vehicle: Klucel (hydroxypropylcellulose) (HPC) 88 % of control

C=CC[Si](Cl)(Cl)Cl
inactive: dose: 50.0 mg/kg/injection, schedule: Q01DX001 (ip), vehicle: saline 93 % of control | [5] 98 % of control

O=C(O)c1cccc2c1oc1c(O)cccc12
inactive: dose: 25.0 mg/kg/injection, schedule: Q04DX002 (ip), vehicle: Klucel (hydroxypropylcellulose) (HPC) 93 % of control | dose: 50.0 mg/kg/injection, schedule: Q04DX002 (ip), vehicle: Klucel (hydroxypropylcellulose) (HPC) 90 % of control | [6] 93 % of control

CCN(CC)C(=O)CCC(=O)O
inactive: dose: 100.0 mg/kg/injection, schedule: Q04DX002 (ip), vehicle: saline 89 % of control | dose: 200.0 mg/kg/injection, schedule: Q04DX002 (ip), vehicle: saline 103 % of control | dose: 400.0 mg/kg/injection, schedule: Q04DX002 (ip), vehicle: saline 103 % of control

CCCCCCN=C(N)c1ccc(NC(=O)c2ccc(C(=O)Nc3ccc(C(N)=NCCCCCC)cc3)cc2)cc1
inactive: dose: 0.62 mg/kg/injection, schedule: Q01DX015 (ip), vehicle: methylcellulose (MC) 101 % of control | dose: 1.25 mg/kg/injection, schedule: Q01DX015 (ip), vehicle: methylcellulose (MC) 95 % of control | dose: 2.5 mg/kg/injection, schedule: Q01DX015 (ip), vehicle: methylcellulose (MC) 103 % of control | dose: 5.0 mg/kg/injection, schedule: Q01DX015 (ip), vehicle: methylcellulose (MC) 112 % of control

O=c1[nH][nH]c2ccccc12
inactive: dose: 31.2 mg/kg/injection, schedule: Q01DX Z (ip), vehicle: other 88 % of control | dose: 125.0 mg/kg/injection, schedule: Q01DX Z (ip), vehicle: other 88 % of control | dose: 250.0 mg/kg/injection, schedule: Q01DX Z (ip), vehicle: other 92 % of control

C[N+]1(C2CCCCC2)CCCCC1
inactive: dose: 10.0 mg/kg/injection, schedule: Q01DX001 (ip), vehicle: acetone 96 % of control | [1] 98 % of control | dose: 20.0 mg/kg/injection, schedule: Q01DX001 (ip), vehicle: acetone 95 % of control | dose: 20.0 mg/kg/injection, schedule: Q01DX001 (ip), vehicle: saline 95 % of control | dose: 40.0 mg/kg/injection, schedule: Q01DX001 (ip), vehicle: acetone 102 % of control | dose: 40.0 mg/kg/injection, schedule: Q01DX001 (ip), vehicle: saline 93 % of control | dose: 75.0 mg/kg/injection, schedule: Q01DX001 (ip), vehicle: saline 101 % of control

CCOC(=O)Cc1nc2ccc(C)cc2[nH]1
inactive: [6] 100 % of control | dose: 200.0 mg/kg/injection, schedule: Q04DX002 (ip), vehicle: Klucel (hydroxypropylcellulose) (HPC) 100 % of control | dose: 400.0 mg/kg/injection, schedule: Q04DX002 (ip), vehicle: Klucel (hydroxypropylcellulose) (HPC) 115 % of control

CCOC(=O)C1=C2c3ccc4cc(OC)ccc4c3CCC2(C)C(=O)C1 (configuration not stated)
inactive: dose: 100.0 mg/kg/injection, schedule: Q04DX003 (sc), vehicle: steriod suspending solution 102 % of control | dose: 200.0 mg/kg/injection, schedule: Q04DX003 (sc), vehicle: steriod suspending solution 109 % of control | dose: 400.0 mg/kg/injection, schedule: Q04DX003 (sc), vehicle: steriod suspending solution 109 % of control

CCN(CC(=O)O)CC(=O)O
inactive: [5] 93 % of control | [7] 112 % of control | [8] 96 % of control

OCCNC(=S)SCc1ccccc1
inactive: dose: 100.0 mg/kg/injection, schedule: Q01DX009 (sc), vehicle: olive oil, sesame oil, peanut oil 102 % of control | dose: 100.0 mg/kg/injection, schedule: Q04DX003 (sc), vehicle: olive oil, sesame oil, peanut oil 96 % of control | dose: 200.0 mg/kg/injection, schedule: Q01DX009 (sc), vehicle: olive oil, sesame oil, peanut oil 120 % of control | dose: 200.0 mg/kg/injection, schedule: Q04DX003 (sc), vehicle: olive oil, sesame oil, peanut oil 98 % of control | dose: 400.0 mg/kg/injection, schedule: Q04DX003 (sc), vehicle: olive oil, sesame oil, peanut oil 105 % of control

Clc1nnc(NC2CCCCC2)c(Cl)c1Cl
inactive: [9] 102 % of control | [2] 91 % of control | [10] 102 % of control | [3] 91 % of control | [11] 110 % of control | [4] 92 % of control

Cc1ccc(S(=O)(=O)OCCOc2ccc(C(C)(C)CC(C)(C)C)cc2)cc1
inactive: [9] 100 % of control | [10] 101 % of control | [11] 100 % of control

O=S(=O)(N/C(=C(\NS(=O)(=O)c1ccccc1)c1ccccc1)c1ccccc1)c1ccccc1
inactive: [2] 97 % of control | [3] 95 % of control | [4] 92 % of control

CSc1ccc(NC(=O)Nc2cc(C)ccc2N=Nc2ccc(C)cc2)cc1
inactive: dose: 100.0 mg/kg/injection, schedule: Q01DX009 (ip), vehicle: other 89 % of control | dose: 200.0 mg/kg/injection, schedule: Q01DX009 (ip), vehicle: other 102 % of control | dose: 400.0 mg/kg/injection, schedule: Q01DX009 (ip), vehicle: other 96 % of control

CC(C)C(O)c1cnc(OCc2ccccc2)nc1OCc1ccccc1 (configuration not stated)
inactive: [9] 96 % of control | dose: 100.0 mg/kg/injection, schedule: Q04DX003 (ip), vehicle: other 98 % of control | [10] 101 % of control | dose: 200.0 mg/kg/injection, schedule: Q04DX003 (ip), vehicle: other 103 % of control | [11] 101 % of control | dose: 400.0 mg/kg/injection, schedule: Q04DX003 (ip), vehicle: other 103 % of control

C1=C\CCCCCCCC/1
inactive: dose: 6.25 mg/kg/injection, schedule: Q01DX009 (ip), vehicle: saline with Tween-80 93 % of control | dose: 12.5 mg/kg/injection, schedule: Q01DX009 (ip), vehicle: saline with Tween-80 104 % of control | dose: 25.0 mg/kg/injection, schedule: Q01DX009 (ip), vehicle: saline with Tween-80 98 % of control | [5] 101 % of control | [7] 101 % of control | [8] 95 % of control

CN(C)c1ncccc1O
inactive: [5] 95 % of control | [7] 101 % of control | [8] 106 % of control
